Test [1] deals with Kwangan soybean (non-transformed). Kind of test: Herbicide tolerance of soybean. The format is in vivo. The following applies: 5 μM painted on leaves, 7 days.
Test [2] deals with A. thaliana T3 lines with CyPPO10 wild type or mutants (F360M, F360I, F360L, F360C, A167C), CyPPO13 wild type or mutants (F373M, F373C, F373I, A177C …). Description: Seed germination of A. thaliana transformants on herbicide media. The test is classed as in vivo, Arabidopsis thaliana. Conditions: 7 days.
Test [3] concerns PPO-deficient BT3 E. coli (ΔPPO) with CyPPO10 wild type (Cy10 WT, SEQ ID NO: 2). Kind of test: Growth of transformed BT3 (ΔPPO) on tiafenacil media. The format is cell-based. As for the experimental part: (§1) After transforming PPO-deficient BT3 E. coli (ΔPPO) with CyPPO10 or CyPPO13, the transformed BT3 (ΔPPO) was cultured on LB agar plates containing PPO-inhibiting herbicide to examine the growth level of the transformed BT3 (ΔPPO). BT3 (ΔPPO) strain was obtained from Hokkaido University (Japan). The BT3 (ΔPPO) strain is deficient in hemG-type PPO and has kanamycin tolerance (refer to “Watanabe et al., Dual targeting of spinach protoporphyrinogen oxidase II to mitochondria and chloroplasts by alternative use of two in-frame […], JBC 2001 276(23):20474-20481; Che et al., Molecular Characterization and Subcellular Localization of Protoporphyrinogen Oxidase in Spinach Chloroplasts, Plant Physiol. 2000 September; 124(1):59-70”).
(§2) CyPPO10 and CyPPO13 genes were cloned in pACBB vector (Plasmid #32551; Addgene; refer to FIG. 1).
(§3) For seed culture of E. coli transformed with respective genes, each single colony of E. coli transformant as provided above was cultured in 3 ml of LB broth containing chloramphenicol overnight (220 rpm, 37° C.), and 50 to 100 μl were subcultured in a new 3 ml of LB broth, and they were cultured until absorbance (OD600) became 0.5 to 1, and they were diluted with LB broth to absorbance (OD600) of 0.5. The diluted solution was serially diluted again 5 times by a factor of one tenth with LB broth. […] The LB Agar media were incubated at 37° C., under light condition, and level of inhibiting growth was observed after 16 to 20 hours of incubation.

Test [4] has as its system PPO-deficient BT3 E. coli (ΔPPO) with CyPPO13 wild type (Cy13 WT, SEQ ID NO: 4). Described as above. The format is cell-based. As to the method: as §1, §2, §3
Test [5] concerns CyPPO13 (Synechococcus sp. JA-3-3Ab PPO, SEQ ID NO: 4) variant F373M, MBP fusion. Kind of test: PPO inhibition assay. The test is classed as biochemical. The following applies: herbicide 0-5,000 nM, 50 μM substrate.
The subject of test [6] is wild type A. thaliana (Col-0 ecotype). Kind of test: Herbicide injury of A. thaliana plants. The format is in vivo, Arabidopsis thaliana. Conditions: 1 μM spray, within 7 days. As for the experimental part: For comparison, the same test was conducted using the wild type A. thaliana (Col-0 ecotype).
In test [7] the test system is soybean transformed with CyPPO10 A167L+F360M. Description: Herbicide tolerance of soybean. The format is in vivo.
For test [8], the system named is BT3 (ΔPPO) E. coli with CyPPO10m-6 (E225G, G258S, Q266L, T336I, V356F, F360M, A364D, R406G, W419R; SEQ ID NO: 131). Kind of test: Growth of BT3 with error-prone PCR mutant of CyPPO10. The following applies: up to 200 μM herbicide. The format is cell-based.
Test [9] concerns PPO-deficient BT3 E. coli (ΔPPO) with wild type A. thaliana PPO1 (AtPPO1 WT, SEQ ID NO: 5). Kind of test: Growth of transformed BT3 (ΔPPO) on tiafenacil media. The format is cell-based. The following applies: 100 μM tiafenacil. As to the method: as §1, §3
(§4) Plant physiol. 2003 133:736-747).

Test [10] deals with PPO-deficient BT3 E. coli (ΔPPO) with A. thaliana PPO1 mutant AtPPO1 SLYM (Y426M, S305L, SEQ ID NO: 7). The test is described as above. The test is classed as cell-based. As for the experimental part: as §1, §3, §4
Test [11] deals with A. thaliana transformants with CyPPO10 or CyPPO13 or variants. Description: Herbicide tolerance of A. thaliana transformants (T1). The test is classed as in vivo, Arabidopsis thaliana. Conditions: 1 μM spray. From the text:
A. thaliana was transformed with a binary vector having ORF of a selectable marker, bar gene (glufosinate-tolerant), and that of each encoding gene of CyPPO10 or CyPPO13 variants. The transgenic plant was examined for cross-tolerance towards glufosinate and PPO-inhibiting herbicides. The bar gene was also used to examine whether the transgene was stably inherited during generations. NOS promoter and E9 terminator were used for bar gene expression.

Here are results for one molecule from patent US11466286B2, “Methods and compositions for conferring and/or enhancing herbicide tolerance using protoporphyrinogen oxidase or variant thereof” (FarmHannong Co., Ltd., priority 2016, dated 2022).

As usually defined, the IC50 is the concentration at which inhibition is half-maximal. Regarding `COC(=O)CCNC(=O)C(C)Sc1cc(-n2c(=O)cc(C(F)(F)F)n(C)c2=O)c(F)cc1Cl` (stereo not shown) [Tiafenacil], the leaf damage entry was “severe damage” in [1] and “no damage” in test [7] (T0, 15 μM painted on leaves). Also, the seed germination result in test [2] (25 μM glufosinate+30 nM tiafenacil+40 nM saflufenacil) and in test [2] (25 μM glufosinate+70 nM tiafenacil) was “germinated” throughout. The growth entry is reported as “at the similar level to that of the medium containing no tiafenacil” in test [3] (100 μM tiafenacil); “grew well” in [3] (400 μM tiafenacil); “at the similar level to that of the medium containing no tiafenacil” in test [4] (100 μM tiafenacil); “grew well” in test [4] (400 μM tiafenacil); “did not grow” in [9]; “hardly grew” in test [10] (400 μM tiafenacil). Also, the growth result in [10] (from 100 μM tiafenacil) is recorded as “gradually started to exhibit growth inhibition”. Moreover, the IC50 in test [5] came to 56 nM. Also, the values for the plant damage entry in test [6] and in test [11] were “completely died” and “no damage”, respectively. The damage level result in test [7] (T1, 25 μM tiafenacil spray, 5 days) is “no damage”. The cell viability result in [8] is “cell viability similar to that of cells with wild type CyPPO10”.
